According to paper PMC12379159 (Journal of Natural Products, 2025):
Residue numbers refer to the chain shown, from its start. Like-named read-outs stand apart in the source and are kept apart here.

How the values were obtained:
RORγ = test system: RORγ; parameters: method as in numbers not given; settings: Figure 4, collected from the literature; ref numbers not given; cited from earlier work
Gal4-hRORγ = molecular target: T1, Gal4-hRORγ (Homo sapiens, UniProt P51449); experiment: Gal4-RORγ mammalian one-hybrid luciferase assay; type: cell-based; settings: HEK293 cells; for IC50: 18 h treatment, up to 5 μM
T1 construct: Encodes for a hRORγ-LBD:Gal4-DBD fusion protein; expressed in transfected cells; host or cells: HEK293
T1 sequence (P51449 269-508 limits assumed): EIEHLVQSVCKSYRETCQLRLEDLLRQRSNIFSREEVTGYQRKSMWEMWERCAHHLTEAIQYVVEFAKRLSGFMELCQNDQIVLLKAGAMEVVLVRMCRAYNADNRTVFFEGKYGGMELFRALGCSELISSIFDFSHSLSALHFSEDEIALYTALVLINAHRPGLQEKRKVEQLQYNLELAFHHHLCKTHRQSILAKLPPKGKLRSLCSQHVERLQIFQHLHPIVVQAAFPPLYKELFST
Protocol: (§1) For luciferase assays, 8 × 10^6 HEK293 cells were seeded on 150 mm cell culture dishes and incubated for 5 h. Afterward, cells were transfected with the calcium phosphate coprecipitation method using 5 μg of the nuclear receptor (Gal4-hRORγ or full-length human RORγ), 5 μg of a luciferase reporter (pTK-MH100 × 4-LUC for Gal4-hRORγ experiments or RORE-LUC for full-length human RORγ experiments) and 3 μg eGFP-N1 (for assessing transfection efficiency) plasmid DNA and incubated overnight. […] The medium was changed the following day, and cells were further incubated for another four to 5 h before trypsin/EDTA was added to detach them from the dishes. […] RLUs were normalized to relative fluorescence units (RFU) to account for differences in cell number and transfection efficiency and then normalized to the vehicle control. Results are expressed as fold activation relative to the vehicle control.
(§2) Concentration–response data were analyzed in GraphPad Prism version 10 by three-parameter logistic nonlinear regression, with the Hill slope constrained to a theoretical value of −1.0. An IC50 value was determined only for compounds yielding a statistically reliable fit. […] In these cases, only the maximal inhibition achieved at the highest tested concentration (I max(%) at 5 μM) is reported, calculated as follows: Imax(%)=(1−Bottom/Top)×100 (“top” = baseline activity measured at the lowest concentration, “bottom” = residual activity observed at the highest concentration, corresponding to the maximal inhibitory effect).

hRORγ LBD = molecular target: T2, hRORγ LBD (Homo sapiens, UniProt P51449); experiment: Thermal stability by nano differential scanning fluorimetry (nanoDSF); type: binding; settings: RORγ-LBD with 4 equiv ligand vs without ligand; mean ± SD
T2 construct: His tag (N, cleaved yes); made in house; host or cells: Escherichia coli BL21 DE3
T2 sequence (P51449 264-518): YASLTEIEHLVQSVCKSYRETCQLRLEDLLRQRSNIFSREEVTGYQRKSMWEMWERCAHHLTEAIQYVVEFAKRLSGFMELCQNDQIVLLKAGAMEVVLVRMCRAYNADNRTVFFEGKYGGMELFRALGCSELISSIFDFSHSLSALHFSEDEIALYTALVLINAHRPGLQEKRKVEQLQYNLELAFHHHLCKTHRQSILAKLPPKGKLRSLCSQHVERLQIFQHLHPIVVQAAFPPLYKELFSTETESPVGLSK
Protocol: Soluble proteins were purified on Ni Hitrap FFcrude column (Cytiva), followed by His tag removal by thrombin (MP Biomedicals) cleavage and by size exclusion chromatography on HiLoad Superdex200 column (Cytiva) equilibrated in 20 mM Tris-HCl pH 7.5, 150 mM NaCl, 1 mM TCEP (Hampton Research). Purity and homogeneity of the hRORγ LBD were assessed by SDS-PAGE. The purified protein was concentrated to 0.5–1.0 mg/mL with an Amicon Ultra 10 kDa MWCO. The aliquots of purified LBD were incubated with 4 equiv ligands or vehicle for thermal stability experiments.
Fluorescence-based thermal experiments were performed using a Prometheus NT.48 (NanoTemper Technologies, Germany) with grade standard capillaries containing 10 μL of RORγLBD with different ligands. […] NanoTemper PR. Stability Analysis v1.0.2 was used to fit the data and determine the melting temperatures Tm.

full-length human RORγ = molecular target: T3, full-length human RORγ (Homo sapiens, UniProt P51449); experiment: Full-length RORγ luciferase assay (RORE-LUC reporter); type: cell-based
T3 construct: Encodes for the full-length human RORγ; expressed in transfected cells; host or cells: HEK293
T3 sequence (P51449 1-518): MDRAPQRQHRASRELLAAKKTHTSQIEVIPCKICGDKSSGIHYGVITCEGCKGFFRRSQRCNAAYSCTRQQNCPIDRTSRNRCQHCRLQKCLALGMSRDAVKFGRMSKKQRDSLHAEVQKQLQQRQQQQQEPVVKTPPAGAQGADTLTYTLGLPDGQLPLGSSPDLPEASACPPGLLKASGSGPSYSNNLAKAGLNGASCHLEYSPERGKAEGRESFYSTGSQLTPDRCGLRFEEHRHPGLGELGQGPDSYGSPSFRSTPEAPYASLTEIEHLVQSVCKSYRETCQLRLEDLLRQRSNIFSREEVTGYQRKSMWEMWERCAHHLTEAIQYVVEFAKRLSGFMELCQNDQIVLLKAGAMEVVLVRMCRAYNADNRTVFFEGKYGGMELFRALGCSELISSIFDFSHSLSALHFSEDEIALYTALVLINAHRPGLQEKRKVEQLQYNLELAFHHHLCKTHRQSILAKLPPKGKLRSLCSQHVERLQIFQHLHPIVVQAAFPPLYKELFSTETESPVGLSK
Protocol: as §1, §2

[1] = test system: Il17a and Il17f (Il17a/f); experiment: RT-qPCR of Il17a and Il17f in EL-4-mRORγt cells; type: cell-based, murine; settings: then 4.5-h PMA and ionomycin
Protocol: For RT-qPCR assays, 5 × 10^5 EL-4-mRORγt cells were seeded in 500 μL complete DMEM per well of a 24-well plate and treated with the vehicle control, the positive control, or the compounds of interest. After incubation for 20–24 h, cells were stimulated with Cell Activation Cocktail (PMA: 40.5 μM, ionomycin: 669.3 μM; 500X) for 4.5 h. Afterward, total RNA was isolated using the innuPREP RNA Mini Kit 2.0 according to the manufacturer’s instructions. According to the manufacturer’s instructions, 1 μg RNA was reverse-transcribed into cDNA using the High-Capacity cDNA Reverse Transcription Kit. RT-qPCR was performed using the Luna Universal qPCR Master Mix on a LightCycler 480 (Roche Diagnostics, Rotkreuz, Switzerland) according to the manufacturer’s instructions. […] Livak’s 2−ΔΔCt method was employed to determine the expression levels of RORγ target genes. This involved normalizing the target gene expression to the expression levels of the control gene 18s, followed by further normalization to the vehicle control.

Gal4-RORγ H479L = molecular target: T4, Gal4-RORγ H479L (Homo sapiens, UniProt P51449, H479L); experiment: Gal4-RORγ H479L mutant luciferase assay; settings: 5 μM
T4 sequence (P51449 269-508 H479L limits assumed): T1 sequence (P51449 269-508 limits assumed) with H211L
Protocol: Gal4-hRORγ H323A and H479L mutants were generated using the QuikChange Lightning Site-Directed Mutagenesis Kit according to the manufacturer’s instructions. Briefly, 10 ng template DNA (Gal4-hRORγ) was PCR-amplified with the respective mutagenic forward and reverse primers listed in Table S3, which were designed using the QuikChange Primer Design tool (https://www.agilent.com/store/primerDesignProgram.jsp). […] Two μL of the PCR product were then transformed into XL1-Blue competent E. coli according to a protocol provided by NEB. […] After centrifuging the main culture at 5691g for 10 min, the supernatant was decanted, and plasmid preparation was performed using the PureLink HiPure Plasmid Midiprep Kit according to the manufacturer’s instructions. DNA yields and purities were checked using a NanoDrop 2000c (Thermo Fisher Scientific, Waltham, MA, USA).

[2] = pretreated 20–24 h at indicated concentrations

## CC(C)=CCC[C@H](C)[C@H]1CC[C@H]2C3=C(CC[C@]12C)[C@@]1(C)CC[C@H](O)[C@@](C)(C(=O)O)C1CC3 (stereo partly drawn) [4α-carboxy-4β-methyl-zymosterol]
RORγ
  RORγ inverse agonist or agonist: Agonist

## C=C(C)[C@@H]1CC[C@]2(C=O)CC[C@]3(C)[C@H](CC[C@@H]4[C@@]5(C)CC[C@H](O)C(C)(C)[C@@H]5CC[C@]43C)[C@@H]12 [Betulinaldehyde]
RORγ
  RORγ inverse agonist or agonist: Agonist

## COc1ccc(CC(=O)Nc2cc3oc4ccccc4c3cc2OC)cc1 [Compound 5]
Gal4-hRORγ; 3 μM
  Activity in Gal4-RORγ luciferase assay (initial screen): agonistic activity

## C=C(C)[C@@H]1CC[C@]2(C(=O)O)CC[C@]3(C)[C@H](CC[C@@H]4[C@@]5(C)C/C(=C\c6ccccc6OC)C(=O)C(C)(C)[C@@H]5CC[C@]43C)[C@@H]12 [Compound 15.1]
hRORγ LBD
  ΔTm measured with nano differential scanning fluorimetry: 5.9 ± 0.4 °C
Gal4-hRORγ
  Imax(%) at 5 μM, Gal4-RORγ luciferase assay: 34%
full-length human RORγ; HEK293 cells
  Imax(%) at 5 μM, full-length RORγ luciferase assay: 24%
[1]; [2]
  Il17a/f expression: inactive

## C=C(C)[C@@H]1CC[C@]2(C(=O)O)CC[C@]3(C)[C@H](CC[C@@H]4[C@@]5(C)C/C(=C/c6cccc(I)c6)C(=O)C(C)(C)[C@@H]5CC[C@]43C)[C@@H]12 [Compound 15.2]
hRORγ LBD
  ΔTm measured with nano differential scanning fluorimetry: 2.2 ± 0.5 °C
Gal4-hRORγ
  Imax(%) at 5 μM, Gal4-RORγ luciferase assay: 58%
  IC50: 3.1 µM
full-length human RORγ; HEK293 cells
  Imax(%) at 5 μM, full-length RORγ luciferase assay: 55%
[1]; [2]
  Il17a/f expression: significant and concentration-dependent reduction
Gal4-RORγ H479L
  Activity on Gal4-RORγ H479L vs WT: loss of activity

## C=C(C)[C@@H]1CC[C@]2(C(=O)O)CC[C@]3(C)[C@H](CC[C@@H]4[C@@]5(C)C/C(=C/c6ccccc6)C(=O)C(C)(C)[C@@H]5CC[C@]43C)[C@@H]12 [Compound 15.3]
hRORγ LBD
  ΔTm measured with nano differential scanning fluorimetry: 2.8 ± 0.2 °C
Gal4-hRORγ
  Imax(%) at 5 μM, Gal4-RORγ luciferase assay: 53%
  IC50: 2.7 µM
full-length human RORγ; HEK293 cells
  Imax(%) at 5 μM, full-length RORγ luciferase assay: 67%
full-length human RORγ; HEK293 cells, 18 h treatment, up to 5 μM, read-out: IC50, full-length RORγ luciferase assay
  IC50: > 5 µM
full-length human RORγ; exceeds the highest concentration tested, only an estimate, read-out: Estimated IC50, full-length RORγ luciferase assay
  IC50: 5.7 µM
[1]; [2]
  Il17a/f expression: significant and concentration-dependent reduction
Gal4-RORγ H479L
  Activity on Gal4-RORγ H479L vs WT: loss of activity

## C=C(C)[C@@H]1CC[C@]2(C(=O)OC)CC[C@]3(C)[C@H](CC[C@@H]4[C@@]5(C)C/C(=C/c6ccco6)C(=O)C(C)(C)[C@@H]5CC[C@]43C)[C@@H]12 [Compound 15.4]
hRORγ LBD
  ΔTm measured with nano differential scanning fluorimetry: 1.1 ± 0.2 °C
Gal4-hRORγ
  Imax(%) at 5 μM, Gal4-RORγ luciferase assay: 0%
full-length human RORγ; HEK293 cells
  Imax(%) at 5 μM, full-length RORγ luciferase assay: 0%
[1]; [2]
  Il17a/f expression: slightly but significantly up-regulated
Gal4-RORγ H479L
  Activity on Gal4-RORγ H479L vs WT: remained inactive

## C=C(C)[C@@H]1CC[C@]2(C(=O)NCCCN(C)C)CC[C@]3(C)[C@H](CC[C@@H]4[C@@]5(C)CC[C@H](O)C(C)(C)[C@@H]5CC[C@]43C)[C@@H]12 [Compound 24]
RORγ
  RORγ inverse agonist or agonist: Inverse agonist

## C=C1C[C@]2(C)[C@H]3CC[C@@H]4[C@H]5[C@H](C(=C)C)CC[C@]5(C(=O)NCCCN(C)C)CC[C@@]4(C)[C@]3(C)CC[C@H]2C(C)(C)C1=O [Compound 25]
RORγ
  RORγ inverse agonist or agonist: Inverse agonist

## C[C@@H]1CC[C@@]2(OC1)O[C@H]1C[C@H]3[C@@H]4CC=C5C[C@@H](O)CC[C@]5(C)[C@H]4CC[C@]3(C)[C@H]1[C@@H]2C [Diosgenin]
RORγ
  RORγ inverse agonist or agonist: Inverse agonist

## CC(C)CCC[C@H](CCCC(C)(C)O)[C@H]1CC[C@H]2[C@@H]3CC=C4C[C@@H](O)CC[C@]4(C)[C@H]3CC[C@]12C [Gemini-cholesterol analogue]
RORγ
  RORγ inverse agonist or agonist: Inverse agonist

## OC(c1ccc(-c2ccc(CN3CCN(Cc4ccncc4)CC3)cc2)c(F)c1)(C(F)(F)F)C(F)(F)F [SR2211, reference compound]
[1]; 5 μM, 20–24 h
  Il17a/f expression: significant and reproducible down-regulation

## C[C@H]1[C@H](C)CC[C@]2(C(=O)O)CC[C@]3(C)C(=CC[C@@H]4[C@@]5(C)CC[C@H](O)C(C)(C)[C@@H]5CC[C@]43C)[C@H]12 [Ursolic acid]
RORγ
  RORγ inverse agonist or agonist: Inverse agonist

## C[C@H]1[C@H](C)CC[C@]2(C(=O)O)CC[C@]3(C)C(=CC[C@@H]4[C@@]5(C)CCC(=O)C(C)(C)[C@@H]5CC[C@]43C)[C@H]12 [Ursonic acid]
RORγ
  RORγ inverse agonist or agonist: Inverse agonist
